Measured values published in patent US5486525A, “Platelet activating factor antagonists: imidazopyridine indoles” (priority 1994, dated 1996).

What follows are compounds tested against T1, PAF receptor (Oryctolagus cuniculus, UniProt G1TEI7) (assay: PAF receptor binding assay: inhibition of specific [^3 H]C18 -PAF binding to rabbit platelet membranes). Details: not given.
T1 construct: platelet membranes were prepared by centrifugation and washing; tissue Pel-Freez (Rogers, AR); host or cells: rabbit blood platelets (membranes prepared from citrated whole rabbit blood)
T1 sequence (G1TEI7 1-342): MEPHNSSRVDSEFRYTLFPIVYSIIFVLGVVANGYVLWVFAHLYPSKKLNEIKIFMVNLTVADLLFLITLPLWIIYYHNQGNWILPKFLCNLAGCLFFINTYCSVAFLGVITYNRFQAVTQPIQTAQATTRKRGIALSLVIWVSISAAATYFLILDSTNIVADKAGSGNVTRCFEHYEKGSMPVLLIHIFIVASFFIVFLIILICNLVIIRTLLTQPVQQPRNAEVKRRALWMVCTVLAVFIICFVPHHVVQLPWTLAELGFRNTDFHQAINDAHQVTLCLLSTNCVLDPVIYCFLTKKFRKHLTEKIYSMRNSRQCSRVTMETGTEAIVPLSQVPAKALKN

Compound	Ki [nM]	inhibition at 100 µM [%]
COC(=O)c1cccc2c1c(C(=O)c1ccc(Cn3c(C)nc4cnccc43)cc1)cn2CC(=O)C(C)(C)C [Example 135, 1-(1-Pinacolyl)4-methoxycarbonyl-3-{4-[(1H-2-methylimidazo[4.5-c]pyrid-1-yl)methyl]benzoyl}indole]	1.3	
COC(=O)c1cccc2c1c(C(=O)c1ccc(Cn3c(C)nc4cc(Cl)c(Cl)cc43)cc1)cn2C(=O)N(C)C [Example 167, 1-N,N-Dimethylcarbamoyl-4-methoxycarbonyl-3-{4-[(1H-2-methyl-5,6-dichlorobenzimidazolyl)methyl]benzoyl}indole]	450	
CCc1nc2cnccc2n1Cc1ccc(C(=O)c2cn(C(=O)N(C)C)c3ccccc23)cc1 [Example 33]	29	
CN(C)C(=O)n1cc(C(=O)c2ccc(Cn3c(C(F)(F)F)nc4cnccc43)cc2)c2ccccc21 [Example 29]	494	
Cc1nc2ccncc2n1Cc1cccc(C(=O)c2cn(C(=O)N(C)C)c3ccccc23)c1 [Example 20, 1-N,N-Dimethylcarbamoyl-3-{3-[(3H-2-methylimidazo[4.5-c]pyrid-3-yl)methyl]benzoyl}indole]		26
Cc1nc2cnccc2n1Cc1cccc(C(=O)c2cn(C(=O)N(C)C)c3ccccc23)c1 [Example 18, 1-N,N-Dimethylcarbamoyl-3-{3-[(1H-2-methylimidazo[4.5-c]pyrid-1-yl)methyl]benzoyl}indole]	323	

Same assay, conditions: Table 1; rabbit platelet membranes, 0.6 nM [^3 H]C18 -PAF, 60 minutes at room temperature; Ki by Cheng and Prusoff; read-out: Ki

Compound	Ki [nM]
Cc1nc2cnccc2n1CCCN(C)CC(=O)c1cn(C(=O)N(C)C)c2cc(-c3ccc(F)cc3)ccc12 [Example 95, 6-(4-Fluorophenyl)-3-{N-[3-(1H-2-methylimidazo[4.5-c]pyrid-1-yl)propyl]sarcosyl}indole-1-carboxylic acid dimethyl amide]	130
1-N,N-Dimethylcarbamoyl-4-chloro-3-{4-[(1H-2-methyl-5- and 6-chlorobenzimidazoyl)methyl]benzoyl}indole [Example 159]	9
COC(=O)c1ccc(C(=O)OC)c2c(C(=O)c3ccc(Cn4c(C)nc5cnccc54)cc3)c[nH]c12 [Example 90, 4,7-Dimethoxycarbonyl-3-{4-[(1H-2-methylimidazo[4,5-c]pyrid-1-yl)methyl]benzoyl}indole]	2.9
